This series can be described thus: Absorbance at photostationary state (PSS) under simulated sunlight or 365 nm light. It counts as physicochemical. Also on record: λ max: unit not given here. The following applies: for Absorbance at PSS, 365 nm: 365 nm light source; for Absorbance at PSS, 365 nm / Absorbance at PSS, full / Absorbance at PSS, +UV / λ max: 2.0×10^−5 M in triglyme; for sensitivity index: ratio of PSS under 365 nm light to PSS under full spectrum light (without UV blocking film); for Absorbance at PSS, full: simulated sunlight (QSUN solar simulator), no UV blocking film; for Absorbance at PSS, +UV: simulated sunlight with UV blocking film (cutoff 370 nm); for λ max: wavelength of maximum absorbance in the visible range, ring-closed isoform. How it is done:
Absorbance at a PSS for selected compounds was measured at 2.0×10^−5 M in triglyme in the absence (full) or presence (+UV) of a UV blocking film with a UV cutoff wavelength of 370 nm (10% transmission at 370 nm), using simulated sunlight (QSUN solar simulator) as a light source, or a 365 nm light source; these PSS are reported in Tables 1.5. […] “Switch” refers to the ability (yes or no) of the compound to be reversibly converted under photochromic and electrochromic conditions between a ring-open isomer and ring-closed isomer.
A sensitivity index (SI) is a ratio of the PSS under 365 nm light to the PSS under full spectrum light (without UV blocking film). SI is an indicator of the sensitivity of the compound to the composition of the incident light (a change in the ratio of UV and visible components)—photochemical ring-opening is induced by a portion of the visible light spectrum.
Photostationary State (PSS) UV/Vis spectra are obtained using an OceanOptics™ Spectrophotometer until absorption in the visible region of the spectrum stabilizes. A 2×10^−5M solution of compound in solvent is prepared, and photofaded using visible light until absorption in the visible region of the spectrum stabilizes. The sample is then irradiated with simulated sunlight (QSUN SS-150 Solar Simulator with xenon arc lamp) until the absorption spectrum stabilizes. To obtain PSS in the presence of a UV blocking film, a second sample is prepared and irradiated as described, with a UV blocking film inserted in the light path when irradiating.

The structures appear in SMILES notation.

Consider `COc1ccc(-c2oc3ccc(OC)cc3c2C2=C(c3c(-c4ccc(OC)cc4)oc4ccc(OC)cc34)C(F)(F)C(F)(F)C2(F)F)cc1` [S083], for which the “Absorbance at PSS, 365 nm” value is listed as 0.167; the sensitivity index is given as 7.26; the “Absorbance at PSS, full” value was 0.023; the “Absorbance at PSS, +UV” value is recorded as 0.008. The compound further showed a λ max of 550.

In the case of `Oc1ccc(-c2cc(C3=C(c4cc(-c5ccc(O)cc5)sc4-c4ccc(O)cc4)C(F)(F)C(F)(F)C3(F)F)c(-c3ccc(O)cc3)s2)cc1` [S084, 3,3′-(perfluorocyclopent-1-ene-1,2-diyl)bis(2,5-bis(4-hydroxyphenyl)thiophene)], the “Absorbance at PSS, 365 nm” value is 0.23; the sensitivity index was 2.56; the “Absorbance at PSS, full” value is listed as 0.09; the “Absorbance at PSS, +UV” value is reported as 0.051. This compound yielded a λ max of 625.

In the case of `COc1ccc(-c2sc(-c3ccc(C#N)cc3)cc2C2=C(c3cc(-c4ccc(C#N)cc4)sc3-c3ccc(OC)cc3)C(F)(F)C(F)(F)C2(F)F)cc1` [S085], the “Absorbance at PSS, 365 nm” value is 0.187; the sensitivity index is listed as 1.16; the “Absorbance at PSS, full” value is 0.161; the “Absorbance at PSS, +UV” value was 0.08. The compound further showed a λ max of 640.

Consider `COc1ccc(-c2cc(C3=C(c4cc(-c5ccc(OC)cc5)sc4-c4ccc(C#N)cc4)C(F)(F)C(F)(F)C3(F)F)c(-c3ccc(C#N)cc3)s2)cc1` [S086, 4,4′-(3,3′-(perfluorocyclopent-1-ene-1,2-diyl)bis(5-(4-methoxyphenyl)thiophene-3,2-diyl))dibenzonitrile], for which the “Absorbance at PSS, 365 nm” value is recorded as 0.231; the sensitivity index is recorded as 2.01; the “Absorbance at PSS, full” value was 0.115; the “Absorbance at PSS, +UV” value is 0.071. This compound had a λ max of 610.

As to `COc1ccc(-c2cc(C3=C(c4cc(-c5ccc(C#N)cc5)sc4-c4ccc(OC)cc4)C(F)(F)C(F)(F)C3(F)F)c(-c3ccc(C#N)cc3)s2)cc1` [S087, 4-(3-(2-(5-(4-cyanophenyl)-2-(4-methoxyphenyl)thiophen-3-yl)-3,3,4,4,5,5-hexafluorocyclopent-1-en-1-yl)-5-(4-methoxyphenyl)thiophen-2-yl)benzonitrile], the “Absorbance at PSS, 365 nm” value is reported as 0.209; the sensitivity index is recorded as 1.92; the “Absorbance at PSS, full” value is 0.109; the “Absorbance at PSS, +UV” value is given as 0.055. The λ max is reported as 628.

Turning to `COc1ccc(-c2sc(-c3ccc(/C=C/c4ccccc4)cc3)cc2C2=C(c3cc(-c4ccc(/C=C/c5ccccc5)cc4)sc3-c3ccc(OC)cc3)C(F)(F)C(F)(F)C2(F)F)cc1` [S088, (E)-3,3′-(perfluorocyclopent-1-ene-1,2-diyl)bis(2-(4-methoxyphenyl)-5-(4-((E)-styryl)phenyl)thiophene)], the “Absorbance at PSS, 365 nm” value is recorded as 0.457; the sensitivity index is on record as 2.26; the “Absorbance at PSS, full” value is recorded as 0.202; the “Absorbance at PSS, +UV” value is 0.132. The compound also had a λ max of 656.

For `COc1ccc(-c2sc(-c3ccc(/C=C/C=C/c4ccccc4)cc3)cc2C2=C(c3cc(-c4ccc(/C=C/C=C/c5ccccc5)cc4)sc3-c3ccc(OC)cc3)C(F)(F)C(F)(F)C2(F)F)cc1` [S089, 3,3′-(perfluorocyclopent-1-ene-1,2-diyl)bis(2-(4-methoxyphenyl)-5-(4-((1E,3E)-4-phenylbuta-1,3-dien-1-yl)phenyl)thiophene)], the “Absorbance at PSS, 365 nm” value is recorded as 0.564; the sensitivity index was 4.12; the “Absorbance at PSS, full” value was 0.137; the “Absorbance at PSS, +UV” value is recorded as 0.126. The compound further showed a λ max of 656.

As for `COc1ccc(-c2sc(-c3ccc(OCCOc4ccc(N(c5ccc(Cl)cc5)c5ccc(Cl)cc5)cc4)cc3)cc2C2=C(c3cc(-c4ccc(OCCOc5ccc(N(c6ccc(Cl)cc6)c6ccc(Cl)cc6)cc5)cc4)sc3-c3ccc(OC)cc3)C(F)(F)C(F)(F)C2(F)F)cc1` [S090, 4,4′-(((((4,4′-(perfluorocyclopent-1-ene-1,2-diyl)bis(5-(4-methoxyphenyl)thiophene-4,2-diyl))bis(4,1-phenylene))bis(oxy))bis(ethane-2,1-diyl))bis(oxy))bis(N,N-bis(4-chlorophenyl)aniline)], the “Absorbance at PSS, 365 nm” value was 0.183; the sensitivity index is recorded as 1.71; the “Absorbance at PSS, full” value is reported as 0.107; the “Absorbance at PSS, +UV” value is on record as 0.058. In addition, the λ max is recorded as 624.

`CCOc1ccc(-c2cc(C3=C(c4cc(-c5ccc(OCC)cc5)sc4-c4ccc(OCC)cc4)C(F)(F)C(F)(F)C3(F)F)c(-c3ccc(OCC)cc3)s2)cc1` [S091, 3,3′-(perfluorocyclopent-1-ene-1,2-diyl)bis(2,5-bis(4-ethoxyphenyl)thiophene)]: the “Absorbance at PSS, 365 nm” value is on record as 0.287; the sensitivity index is given as 1.75; the “Absorbance at PSS, full” value is 0.164; the “Absorbance at PSS, +UV” value is listed as 0.095. This compound returned a λ max of 629.

Turning to `CC(C)Oc1ccc(-c2cc(C3=C(c4cc(-c5ccc(OC(C)C)cc5)sc4-c4ccc(OC(C)C)cc4)C(F)(F)C(F)(F)C3(F)F)c(-c3ccc(OC(C)C)cc3)s2)cc1` [S092, 3,3′-(perfluorocyclopent-1-ene-1,2-diyl)bis(2,5-bis(4-isopropoxyphenyl)thiophene)], the “Absorbance at PSS, 365 nm” value is 0.307; the sensitivity index is 1.90; the “Absorbance at PSS, full” value is 0.162; the “Absorbance at PSS, +UV” value was 0.093. This compound also displayed a λ max of 627.

For `CC(C)(C)COc1ccc(-c2cc(C3=C(c4cc(-c5ccc(OCC(C)(C)C)cc5)sc4-c4ccc(OCC(C)(C)C)cc4)C(F)(F)C(F)(F)C3(F)F)c(-c3ccc(OCC(C)(C)C)cc3)s2)cc1` [S095, 3,3′-(perfluorocyclopent-1-ene-1,2-diyl)bis(2,5-bis(4-(neopentyloxy)phenyl)thiophene)], the “Absorbance at PSS, 365 nm” value is 0.279; the sensitivity index is reported as 1.74; the “Absorbance at PSS, full” value is on record as 0.16; the “Absorbance at PSS, +UV” value is 0.086. This compound also gave a λ max of 625.

In the case of `COc1cc(OC)cc(-c2cc(C3=C(c4cc(-c5cc(OC)cc(OC)c5)sc4-c4cc(OC)cc(OC)c4)C(F)(F)C(F)(F)C3(F)F)c(-c3cc(OC)cc(OC)c3)s2)c1` [S097, 3,3′-(perfluorocyclopent-1-ene-1,2-diyl)bis(2,5-bis(3,5-dimethoxyphenyl)thiophene)], the “Absorbance at PSS, 365 nm” value is on record as 0.206; the sensitivity index is recorded as 2.82; the “Absorbance at PSS, full” value is on record as 0.073; the “Absorbance at PSS, +UV” value was 0.029. The compound further showed a λ max of 611.

In the case of `COCCOc1ccc(-c2sc(-c3ccc(C(C)(C)C)s3)cc2C2=C(c3cc(-c4ccc(C(C)(C)C)s4)sc3-c3ccc(OCCOC)cc3)C(F)(F)C(F)(F)C2(F)F)cc1` [S104, 4,4″-(perfluorocyclopent-1-ene-1,2-diyl)bis(5′-(tert-butyl)-5-(4-(2-methoxyethoxy)phenyl)-2,2′-bithiophene)], the “Absorbance at PSS, 365 nm” value is given as 0.383; the sensitivity index was 1.28; the “Absorbance at PSS, full” value is 0.299; the “Absorbance at PSS, +UV” value is on record as 0.203. This compound had a λ max of 645.

With `CC(C)(C)c1ccc(-c2cc(C3=C(c4cc(-c5ccc(C(C)(C)C)s5)sc4-c4ccc(O)cc4)C(F)(F)C(F)(F)C3(F)F)c(-c3ccc(O)cc3)s2)s1` [S105, 4,4′-(4,4″-(perfluorocyclopent-1-ene-1,2-diyl)bis(5′-(tert-butyl)-[2,2′-bithiophene]-5,4-diyl))diphenol], the “Absorbance at PSS, 365 nm” value is 0.272; the sensitivity index is on record as 1.38; the “Absorbance at PSS, full” value is 0.197; the “Absorbance at PSS, +UV” value is given as 0.134. Also, the λ max is reported as 647.

As to `COc1ccc(-c2sc(-c3cc4ccccc4s3)cc2C2=C(c3cc(-c4cc5ccccc5s4)sc3-c3ccc(OC)cc3)C(F)(F)C(F)(F)C2(F)F)cc1` [S110, 2,2′-(4,4′-(perfluorocyclopent-1-ene-1,2-diyl)bis(5-(4-methoxyphenyl)thiophene-4,2-diyl))bis(benzo[b]thiophene)], the “Absorbance at PSS, 365 nm” value was 0.414; the sensitivity index is recorded as 1.20; the “Absorbance at PSS, full” value is reported as 0.346; the “Absorbance at PSS, +UV” value is on record as 0.221. This compound displayed a λ max of 653.

`CC(C)(C)c1ccc(-c2cc(C3=C(c4cc(-c5ccc(C(C)(C)C)s5)sc4-c4ccc(OCCCO)cc4)C(F)(F)C(F)(F)C3(F)F)c(-c3ccc(OCCCO)cc3)s2)s1` [S111, 3,3′-(4,4′-(4,4′-(perfluorocyclopent-1-ene-1,2-diyl)bis(5′-tert-butyl-2,2′-bithiophene-5,4-diyl))bis(4,1-phenylene)bis(oxy))dipropan-1-ol]: the “Absorbance at PSS, 365 nm” value is given as 0.322; the sensitivity index is 1.10; the “Absorbance at PSS, full” value is reported as 0.292; the “Absorbance at PSS, +UV” value is recorded as 0.192. The same compound came in with a λ max of 646.

The values above are taken from patent US10072023B2, “Diarylethene compounds and uses thereof” (SWITCH MATERIALS, INC., priority 2011, dated 2018).
